Columns and labels:
ECHCG = test: Postemergence foliar-applied greenhouse weed control, ECHCG; format: in vivo, Echinochloa crusgalli (L.) Beauv.; settings: 20 DAA
Description: (§1) Seeds or nutlets of the desired test plant species were planted in a soil matrix prepared by mixing a loam or sandy loam soil (e.g., 28.6 percent silt, 18.8 percent clay, and 52.6 percent sand, with a pH of about 5.8 and an organic matter content of about 1.8 percent) and calcareous grit in an 80 to 20 ratio. The soil matrix was contained in plastic pots with a volume of 1 quart and a surface area of 83.6 square centimeters (cm^2). When required to ensure good germination and healthy plants, a fungicide treatment and/or other chemical or physical treatment was applied. The plants were grown for 8-22 days in a greenhouse with an approximate 14 h photoperiod which was maintained at about 29° C. during the day and 26° C. during the night. Nutrients (Peters Excel® 15-5-15 5-Ca 2-Mg and iron chelate) were applied in the irrigation solution as needed and water was added on a regular basis. Supplemental lighting was provided with overhead metal halide 1000-Watt lamps as necessary. The plants were employed for testing when they reached the first through fourth true leaf stage.
(§2) Treatments consisted of the acid or esters of 4-amino-3-chloro-5-fluoro-6-(4-chloro-2-fluoro-3-methoxy-phenyl) pyridine-2-carboxylic acid (Compound A), each formulated as an SC (suspension concentrate), and various herbicidal components alone and in combination. Forms of compound A were applied on an acid equivalent basis.
(§3) Other herbicidal components were applied on an active ingredient basis and included auxin transport inhibiting (ATI) herbicides chlorflurenol (technical material), chlorflurenol-methyl (technical material), diflufenzopyr (technical material), diflufenzopyr sodium (technical material), flurenol-methyl (technical material) and naptalam (technical material).
(§4) Treatment requirements were calculated based upon the rates being tested, the concentration of active ingredient or acid equivalent in the formulation, and a 12 mL application volume at a rate of 187 L/ha.
(§5) For treatments comprised of formulated and technical compounds, weighed amounts of the technical materials were placed individually in 25 mL glass vials and dissolved in a volume of 97:3 v/v acetone/DMSO to obtain 12× stock solutions, and measured amounts of the formulated compounds were placed individually in 25 mL glass vials and diluted in a volume of 1.5% (v/v) crop oil concentrate or water to obtain 12× stock solutions. […] Application solutions were prepared by adding an appropriate amount of each stock solution (e.g., 1 mL) and diluted to the appropriate final concentrations with the addition of an appropriate amount of an aqueous mixture of 1.5% (v/v) crop oil concentrate so that the final spray solutions contained 1.25% (v/v) crop oil concentrate. When required, additional water and/or 97:3 v/v acetone/DMSO was added to individual application solutions so that the final acetone and DMSO concentrations of the application solutions being compared were 8.1% and 0.25%, respectively.
(§6) All stock solutions and applications solutions were visually inspected for compound compatibility prior to application. Spray solutions were applied to the plant material with an overhead Mandel track sprayer equipped with an 8002E nozzle calibrated to deliver 187 L/ha over an application area of 0.503 m^2 at a spray height of 18 to 20 inches (46 to 50 cm) above average plant canopy height. Control plants were sprayed in the same manner with the solvent blank.
(§7) The treated plants and control plants were placed in a greenhouse as described above and watered by sub-irrigation to prevent wash-off of the test compounds. After approximately 3 weeks, the condition of the test plants as compared with that of the untreated plants was determined visually and scored on a scale of 0 to 100 percent where 0 corresponds to no injury or growth inhibition and 100 corresponds to complete kill. […]

ECHCO = test: Postemergence foliar-applied greenhouse weed control, ECHCO; format: in vivo, Echinochloa colona (L.) Link
Description: as §1, §2, §3, §4, §5, §6, §7

CYPRO = test: In-water applied (paddy) greenhouse weed control, CYPRO; format: in vivo, Cyperus rotundus L.; settings: 19 DAA
Protocol: Weed seeds or nutlets of the desired test plant species were planted in puddled soil (mud) prepared by mixing a shredded, non-sterilized mineral soil (50.5 percent silt, 25.5 percent clay, and 24 percent sand, with a pH of about 7.6 and an organic matter content of about 2.9 percent) and water at a 1:1 volumetric ratio. The prepared mud was dispensed in 365 mL aliquots into 16-ounce (oz.) non-perforated plastic pots with a surface area of 86.59 square centimeters (cm^2) leaving a headspace of 3 centimeters (cm) in each pot. Mud was allowed to dry overnight prior to planting or transplanting. Rice seeds were planted in Sun Gro MetroMix® 306 planting mixture, which typically has a pH of 6.0 to 6.8 and an organic matter content of about 30 percent, in plastic plug trays. Seedlings at the second or third leaf stage of growth were transplanted into 840 mL of mud contained in 32-oz. non-perforated plastic pots with a surface area of 86.59 cm^2 4 days prior to herbicide application. The paddy was created by filling the headspace of the pots with 2.5 to 3 cm of water. When required to ensure good germination and healthy plants, a fungicide treatment and/or other chemical or physical treatment was applied. The plants were grown for 4-22 days in a greenhouse with an approximate 14 h photoperiod which was maintained at about 29′C during the day and 26° C. during the night. Nutrients were added as Osmocote® (19:6:12, N:P:K+minor nutrients) at 2 g per 16-oz. pot and 4 g per 960-mL 32-oz. pot. Water was added on a regular basis to maintain the paddy flood, and supplemental lighting was provided with overhead metal halide 1000-Watt lamps as necessary. The plants were employed for testing when they reached the second or third true leaf stage.
Treatments consisted of the acid or esters of 4-amino-3-chloro-5-fluoro-6-(4-chloro-2-fluoro-3-methoxy-phenyl)pyridine-2-carboxylic acid (compound A) each formulated as an SC and various herbicidal components alone and in combination. Forms of compound A were applied on an acid equivalent basis.
Other herbicidal components were applied on an active ingredient basis and included auxin transport inhibiting (ATI) herbicides chlorflurenol-methyl (technical material), chlorflurenol (technical material), diflufenzopyr (technical material), dilfufenzopyr sodium (technical material), flurenol-methyl (technical material,) and naptalam (technical material).
Treatment requirements for each compound or herbicidal component were calculated based upon the rates being tested, the concentration of active ingredient or acid equivalent in the formulation, an application volume of 2 mL per component per pot, and an application area of 86.59 cm^2 per pot.
For formulated compounds, a measured amount was placed in an individual 100 or 200 mL glass vial and was dissolved in a volume of 1.25% (v/v) Agri-Dex® crop oil concentrate to obtain application solutions.
For technical grade compounds, a weighed amount was placed in an individual 100 to 200 mL glass vial and was dissolved in a volume of acetone to obtain concentrated stock solutions. […] The concentrated stock solutions obtained were diluted with an equivalent volume of an aqueous mixture containing 2.5% (v/v) crop oil concentrate so that the final application solutions contained 1.25% (v/v) crop oil concentrate.
Applications were made by injecting with a pipetter appropriate amounts of the application solutions, individually and sequentially, into the aqueous layer of the paddy. Control plants were treated in the same manner with the solvent blank. Applications were made so that all treated plant material received the same concentrations of acetone and crop oil concentrate.
The treated plants and control plants were placed in a greenhouse as described above and water was added as needed to maintain a paddy flood. […]

Structure (SMILES) | Visual Weed Control (%) Obs (ECHCG; 4.38 gae/ha) [%] | Visual Weed Control (%) Obs (ECHCG; 8.75 gae/ha) [%] | Visual Weed Control (%) Obs (ECHCO; 20 DAA, 4.38 gae/ha) [%] | Visual Weed Control (%) Obs (ECHCO; 21 DAA, 4.38 gae/ha) [%] | Visual Weed Control (%) Obs (ECHCO; 20 DAA, 8.75 gae/ha) [%] | Visual Weed Control (%) Obs (CYPRO; 8 gae/ha) [%] | Visual Weed Control (%) Obs (CYPRO; 16 gae/ha) [%] | Visual Weed Control (%) Obs (CYPRO; 32 gae/ha) [%]
COc1c(Cl)ccc(-c2nc(C(=O)O)c(Cl)c(N)c2F)c1F [Compound A Acid, 4-amino-3-chloro-6-(4-chloro-2-fluoro-3-methoxyphenyl)-5-fluoropyridine-2-carboxylic acid] | 60 | 80 | 40 | 60 | – | – | – | –
COc1c(Cl)ccc(-c2nc(C(=O)OCc3ccccc3)c(Cl)c(N)c2F)c1F [Compound A Benzyl Ester] | 60 | – | 60 | – | 80 | 50 | 85 | 90
